Each structure is given as a SMILES string.

The target of this assay is CDK activating kinase (CAK) from Candida albicans (Candida albicans, UniProt A0A1D8PH53). The experiment in a line: Candida albicans CAK kinase assay: phosphorylation of human CDK2 with 33P labeled ATP. It is filed as biochemical. The following applies: 2 nM CAK, 0.3 μM CDK2·FSBA, 10 μM ATP, room temperature, pH 7.5. The procedure: Activity of CDK activating kinase (CAK) from Candida albicans was measured by following the phosphorylation of human cyclin dependent kinase 2 (CDK 2) with ^33P labeled ATP. Reactions were carried out at room temperature in 100 mM HEPES, pH 7.5, 1 mM MgCl2, 100 mM NaCl and 1 mM DTT. Final concentrations of CAK and CDK2 were 2 nM and 300 nM, respectively. The CDK-2 substrate was inactivated with 5′ fluorosulfonylbenzoyladenosine (FSBA) to oblate its intrinsic ATPase activity. Test compounds in DMSO (final concentrations 30 μM, 1.5% DMSO) were first incubated with CAK and CDK2 for 40 minutes, then the reaction initiated by addition of ^33P ATP (final concentration 10 μM, specific activity=[…], NEN, Boston, Mass.). The reaction was allowed to proceed for 40 minutes and quenched by addition of 10% TCA containing 250 mM ATP. The quenched reaction was harvested onto GF/C glass fiber filter plates (Packard, Meriden, Conn.) using a Tomtec 9600 cell harvester (Tomtec, Hamden, Conn.), washed with 5% TCA and water. The plates were then treated with 50 μl of scintillation fluid and counted using a Packard top count (Packard, Meriden, Conn.). Ki values for inhibitory compounds were determined using the same assay at a series of compound concentrations.
Sequence of CDK activating kinase (CAK) from Candida albicans (A0A1D8PH53 entry or part of it): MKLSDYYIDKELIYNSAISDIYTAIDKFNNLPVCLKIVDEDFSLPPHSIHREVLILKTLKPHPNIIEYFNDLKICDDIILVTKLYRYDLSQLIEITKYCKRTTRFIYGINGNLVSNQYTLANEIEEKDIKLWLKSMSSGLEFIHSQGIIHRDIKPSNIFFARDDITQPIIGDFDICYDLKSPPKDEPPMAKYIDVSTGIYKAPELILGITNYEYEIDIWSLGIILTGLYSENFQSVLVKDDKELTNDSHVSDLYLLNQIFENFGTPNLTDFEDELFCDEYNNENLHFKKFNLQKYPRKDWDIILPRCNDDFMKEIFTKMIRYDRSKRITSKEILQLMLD
• 100 mM HEPES, pH 7.5 • 1 mM MgCl2 • 100 mM NaCl • 1 mM DTT • 2 nM CAK • 0.3 μM CDK2·FSBA • 1.5% DMSO (compounds are dissolved in DMSO) • 10 μM ATP (specific activity·1.25e9 μCi/mol ATP)

In the case of `N#Cc1c(N)c(C(=O)c2ccc(F)c(F)c2)n2ccccc12` [Compound 8], the Ki was determined as 1000 nM.

In turn, `N#Cc1c(N)c(C(=O)c2ccc3ccccc3c2)n2ccccc12` [Compound 4] returned a Ki of 540 nM.

The compound `N#Cc1c(N)c(C(=O)c2ccc(OC(F)(F)F)cc2)n2ccccc12` [Compound 10] came in with a Ki of 1500 nM.

In turn, `N#Cc1c(N)c(C(=O)c2ccc(F)cc2)n2ccccc12` [Compound 6] yielded a Ki of 880 nM.

Consider `N#Cc1c(N)c(C(=O)c2cccc(Cl)c2)n2ccccc12` [Compound 3], for which affinity was put at a Ki of 290 nM.

For the compound `CC(=O)Nc1c(C#N)c2ccccn2c1C(=O)c1ccc(F)cc1` [Compound 13], the Ki was greater than 30000 nM.

With `N#Cc1c(N)c(C(=O)c2cccc(I)c2)n2ccccc12` [Compound 1], the Ki was found to be 60 nM.

In turn, `N#Cc1c(N)c(C(=O)c2ccc(Cl)c(Cl)c2)n2ccccc12` [Compound 5] displayed a Ki of 640 nM.

For `COc1ccc(C(=O)c2c(N)c(C#N)c3ccccn23)cc1` [Compound 12], the affinity, expressed as Ki, was 2400 nM.

`N#Cc1c(N)c(C(=O)c2ccc(Cl)cc2)n2ccccc12` [Compound 9] came in with a Ki of 1300 nM.

As for `COc1ccccc1C(=O)c1c(N)c(C#N)c2ccccn12` [Compound 7], the affinity, expressed as Ki, was 940 nM.

`N#Cc1c(N)c(C(=O)c2ccc(Br)cc2)n2ccccc12` [Compound 11] came in with a Ki of 1900 nM.

With `COc1cccc(C(=O)c2c(N)c(C#N)c3ccccn23)c1` [Compound 2], the Ki is 210 nM.

In general, Ki refers to the dissociation constant of the complex between target and ligand, obtained from inhibition or displacement.

The record behind these values is US7078209B2, “CAK inhibitors and uses thereof” (Vertex Pharmaceuticals Incorporated, priority 2001, dated 2006).
